# Tests used:
# MCF7 cells = test: Inhibitory effects on MCF7 cell proliferation (CellTiter-Glo); assay type: cell-based; settings: Homo sapiens, 144 h, 6 days incubation, read-out: IC50 (nM), inhibition of MCF7 cell proliferation
# Description: (§1) MCF7 cells (TCHu74, National Collection of Authenticated Cell Cultures) were cultured in an MEM (GE Healthcare, SH30024.01) complete medium containing 10% fetal bovine serum. On day 1 of the experiment, MCF7 cells were seeded into a 96-well plate at a density of 3,000 cells/well using MEM containing 2% fetal bovine serum, with each well containing 135 μL of cell suspension. The plate was incubated in a 37° C., 5% CO2 cell incubator overnight. The next day, different concentrations of test compounds prepared in media were added at 15 μL/well. The final concentrations of the compounds were 9 concentration points obtained by 4-fold serial dilution from 1000 nM. A blank control containing 0.5% DMSO was set up. The plate was incubated in a 37° C., 5% CO2 cell incubator for 6 days. On day 8, the 96-well cell culture plate was taken out, and CellTiter-Glo® Luminescent Cell Viability Assay (Promega, G7573) was added at 75 μL/well. After the plate was left at room temperature for 10 min, luminescence signal readings were taken on a multilabel microplate reader (PerkinElmer, VICTOR 3). The IC50 values for the inhibitory activity of the compounds were calculated from the concentrations of the compounds and the luminescence signal readings using Graphpad Prism software.
# MCF7/ERα Y537S cells = test: Inhibitory activity on proliferation of ERα mutant-expressing MCF7 cells; assay type: cell-based; settings: Homo sapiens, 144 h, 6 days incubation, CellTiter-Glo, read-out: IC50 (nM), inhibition of proliferation of ERα mutant-expressing MCF7 cells
# Description: The objective of this experiment was to determine the inhibitory activity of the compounds of the present disclosure on the proliferation of ERα mutant-expressing MCF7 cells.
# as §1, with “cells expressing the ERα Y537S mutant were constructed by lentiviral infection. MCF7/ERα Y537S cells” for “cells (TCHu74, National Collection of Authenticated Cell Cultures)”, “bovine serum and […] puromycin.” for “bovine serum.”, “experiment,” for “experiment, MCF7”, “135 µL” for “135 μL”, “75 µL/well.” for “75 μL/well.”
smiles,measurement,setting,value
"CC(C)C[C@H]1CCc2cc(O)ccc2[C@H]1c1ccc(N2CCC(CN3CCN(c4ccc5c(c4)CN(C4CCC(=O)NC4=O)C5=O)CC3)CC2)cc1 (mixture of isomers) [Example 41, 3-(5-(4-((1-(4-((1R,2R)-6-Hydroxy-2-isobutyl-1,2,3,4-tetrahydronaphthalen-1-yl)phenyl)piperidin-4-yl)methyl)piperazin-1-yl)-1-oxoisoindolin-2-yl)piperidine-2,6-dione]",IC50,MCF7 cells,0.62 nM
same,IC50,MCF7/ERα Y537S cells,2.89 nM
"O=C1CC[C@H](N2Cc3cc(N4CCN(CC5CCN(c6ccc([C@@H]7c8ccc(O)cc8CC[C@@H]7C7CCCCC7)cc6F)CC5)CC4)ccc3C2=O)C(=O)N1 [Example 20, (S)-3-(5-(4-((1-(4-((1R,2R)-2-Cyclohexyl-6-hydroxy-1,2,3,4-tetrahydronaphthalen-1-yl)-2-fluorophenyl)piperidin-4-yl)methyl)piperazin-1-yl)-1-oxoisoindolin-2-yl)piperidine-2,6-dione]",IC50,MCF7 cells,0.73 nM
same,IC50,MCF7/ERα Y537S cells,2.74 nM
"O=C1CCC(N2Cc3cc(N4CCN(CC5CCN(c6ccc([C@@H]7c8ccc(O)cc8CC[C@@H]7C7CCOCC7)c(F)c6)CC5)CC4)ccc3C2=O)C(=O)N1 (mixture of isomers) [Example 12-1, 3-(5-(4-((1-(3-Fluoro-4-((1S,2R)-6-hydroxy-2-(tetrahydro-2H-pyran-4-yl)-1,2,3,4-tetrahydronaphthalen-1-yl)phenyl)piperidin-4-yl)methyl)piperazin-1-yl)-1-oxoisoindolin-2-yl)piperidine-2,6-dione]",IC50,MCF7 cells,0.45 nM
same,IC50,MCF7/ERα Y537S cells,1.28 nM
"O=C1CCC(N2Cc3cc(N4CCN(CC5CCN(c6ccc([C@@H]7c8ccc(O)cc8CC[C@@H]7C7CCCC7)cc6)CC5)CC4)ccc3C2=O)C(=O)N1 (mixture of isomers) [Example 14-1, 3-(5-(4-((1-(4-((1R,2R)-2-Cyclopentyl-6-hydroxy-1,2,3,4-tetrahydronaphthalen-1-yl)phenyl)piperidin-4-yl)methyl)piperazin-1-yl)-1-oxoisoindolin-2-yl)piperidine-2,6-dione]",IC50,MCF7 cells,0.75 nM
same,IC50,MCF7/ERα Y537S cells,2.45 nM
"C[C@H]1CCc2cc(O)ccc2[C@H]1c1ccc(N2CCC(CN3CCN(c4ccc5c(c4)CN([C@H]4CCC(=O)NC4=O)C5=O)CC3)CC2)cc1 [Example 27, (S)-3-(5-(4-((1-(4-((1R,2S)-6-Hydroxy-2-methyl-1,2,3,4-tetrahydronaphthalen-1-yl)phenyl)piperidin-4-yl)methyl)piperazin-1-yl)-1-oxoisoindolin-2-yl)piperidine-2,6-dione]",IC50,MCF7 cells,13.4 nM
same,IC50,MCF7/ERα Y537S cells,44.6 nM
"O=C1CCC(N2Cc3cc(N4CCN(CC5CCN(c6ccc([C@@H]7c8ccc(O)cc8CC[C@@H]7C7CCOCC7)cc6F)CC5)CC4)ccc3C2=O)C(=O)N1 (mixture of isomers) [Example 4-1, 3-(5-(4-((1-(2-Fluoro-4-((1R,2R)-6-hydroxy-2-(tetrahydro-2H-pyran-4-yl)-1,2,3,4-tetrahydronaphthalen-1-yl)phenyl)piperidin-4-yl)methyl)piperazin-1-yl)-1-oxoisoindolin-2-yl)piperidine-2,6-dione]",IC50,MCF7 cells,0.92 nM
same,IC50,MCF7/ERα Y537S cells,4.71 nM
"O=C1CC[C@H](N2Cc3cc(N4CCN(CC5CCN(c6ccc([C@@H]7c8ccc(O)cc8CC[C@@H]7Cc7ccccc7)cc6)CC5)CC4)ccc3C2=O)C(=O)N1 [Example 30, (S)-3-(5-(4-((1-(4-((1R,2R)-2-Benzyl-6-hydroxy-1,2,3,4-tetrahydronaphthalen-1-yl)phenyl)piperidin-4-yl)methyl)piperazin-1-yl)-1-oxoisoindolin-2-yl)piperidine-2,6-dione]",IC50,MCF7 cells,3.02 nM
same,IC50,MCF7/ERα Y537S cells,12.7 nM
"O=C1CCC(N2Cc3cc(N4CCN(CC5CCN(c6ccc([C@@H]7c8ccc(O)cc8CC[C@@H]7C7CCC(F)(F)CC7)cc6)CC5)CC4)ccc3C2=O)C(=O)N1 (mixture of isomers) [Example 10, 3-(5-(4-((1-(4-((1R,2R)-2-(4,4-Difluorocyclohexyl)-6-hydroxy-1,2,3,4-tetrahydronaphthalen-1-yl)phenyl)piperidin-4-yl)methyl)piperazin-1-yl)-1-oxoisoindolin-2-yl)piperidine-2,6-dione]",IC50,MCF7 cells,0.3 nM
same,IC50,MCF7/ERα Y537S cells,1.38 nM
"O=C1CCC(N2Cc3cc(N4CCN(CC5CCN(c6ccc(C7c8ccc(O)cc8CC[C@@H]7C7CCC(F)(F)CC7)cc6)CC5)CC4)ccc3C2=O)C(=O)N1 (stereo partly drawn) [Example 9, 3-(5-(4-((1-(4-((1,2)-cis-2-(4,4-Difluorocyclohexyl)-6-hydroxy-1,2,3,4-tetrahydronaphthalen-1-yl)phenyl)piperidin-4-yl)methyl)piperazin-1-yl)-1-oxoisoindolin-2-yl)piperidine-2,6-dione]",IC50,MCF7 cells,2.14 nM
same,IC50,MCF7/ERα Y537S cells,8.73 nM
"O=C1CCC(N2Cc3cc(N4CCN(CC5CCN(c6ccc([C@@H]7c8ccc(O)cc8CCC78CCCC8)cc6F)CC5)CC4)ccc3C2=O)C(=O)N1 (stereo in doubt) [Example 36, (S)-3-(5-(4-((1-(2-Fluoro-4-((R)-6′-hydroxy-3′,4′-dihydro-1′H-spiro[cyclopentane-1,2′-naphthalen]-1′-yl)phenyl)piperidin-4-yl)methyl)piperazin-1-yl)-1-oxoisoindolin-2-yl)piperidine-2,6-dione]",IC50,MCF7 cells,1.56 nM
same,IC50,MCF7/ERα Y537S cells,8.35 nM
"CC(C)CC[C@H]1CCc2cc(O)ccc2[C@H]1c1ccc(N2CCC(CN3CCN(c4ccc5c(c4)CN([C@H]4CCC(=O)NC4=O)C5=O)CC3)CC2)cc1 [Example 40, (S)-3-(5-(4-((1-(4-((1R,2S)-6-Hydroxy-2-isopentyl-1,2,3,4-tetrahydronaphthalen-1-yl)phenyl)piperidin-4-yl)methyl)piperazin-1-yl)-1-oxoisoindolin-2-yl)piperidine-2,6-dione]",IC50,MCF7 cells,3.17 nM
same,IC50,MCF7/ERα Y537S cells,8.89 nM
"O=C1CCC(N2Cc3cc(N4CCN(CC5CCN(c6ccc([C@@H]7c8ccc(O)cc8CCC78CCC8)cc6)CC5)CC4)ccc3C2=O)C(=O)N1 (mixture of isomers) [Example 23-1, 3-(5-(4-((1-(4-((R)-6′-Hydroxy-3′,4′-dihydro-1′H-spiro[cyclobutane-1,2′-naphthalen]-1′-yl)phenyl)piperidin-4-yl)methyl)piperazin-1-yl)-1-oxoisoindolin-2-yl)piperidine-2,6-dione]",IC50,MCF7 cells,2.39 nM
same,IC50,MCF7/ERα Y537S cells,7.53 nM
"O=C1CC[C@H](N2Cc3cc(N4CCN(CC5CCN(c6ccc([C@@H]7c8ccc(O)cc8CC[C@@H]7C7CCC7)cc6F)CC5)CC4)ccc3C2=O)C(=O)N1 [Example 18-1, (S)-3-(5-(4-((1-(4-((1R,2R)-2-Cyclobutyl-6-hydroxy-1,2,3,4-tetrahydronaphthalen-1-yl)-2-fluorophenyl)piperidin-4-yl)methyl)piperazin-1-yl)-1-oxoisoindolin-2-yl)piperidine-2,6-dione]",IC50,MCF7 cells,1.35 nM
same,IC50,MCF7/ERα Y537S cells,7.77 nM
"CCC[C@H]1CCc2cc(O)ccc2[C@H]1c1ccc(N2CCC(CN3CCN(c4ccc5c(c4)CN([C@H]4CCC(=O)NC4=O)C5=O)CC3)CC2)cc1 [Example 29, (S)-3-(5-(4-((1-(4-((1R,2S)-6-Hydroxy-2-propyl-1,2,3,4-tetrahydronaphthalen-1-yl)phenyl)piperidin-4-yl)methyl)piperazin-1-yl)-1-oxoisoindolin-2-yl)piperidine-2,6-dione]",IC50,MCF7 cells,0.78 nM
same,IC50,MCF7/ERα Y537S cells,3.62 nM
"O=C1CCC(N2Cc3cc(N4CCN(CC5CCN(c6ccc([C@H]7c8ccc(O)cc8CC[C@H]7C7CCCC7)cc6)CC5)CC4)ccc3C2=O)C(=O)N1 (stereo partly drawn) [Example 14-2, 3-(5-(4-((1-(4-((1S,2S)-2-Cyclopentyl-6-hydroxy-1,2,3,4-tetrahydronaphthalen-1-yl)phenyl)piperidin-4-yl)methyl)piperazin-1-yl)-1-oxoisoindolin-2-yl)piperidine-2,6-dione]",IC50,MCF7 cells,8.17 nM
same,IC50,MCF7/ERα Y537S cells,24.4 nM
"O=C1CCC(N2Cc3nc(N4CCN(CC5CCN(c6ccc([C@@H]7c8ccc(O)cc8CCC78CCCC8)cc6)CC5)CC4)ccc3C2=O)C(=O)N1 (mixture of isomers) [Example 6, 3-(2-(4-((1-(4-((R)-6′-Hydroxy-3′,4′-dihydro-1′H-spiro[cyclopentane-1,2′-naphthalen]-1′-yl)phenyl)piperidin-4-yl)methyl)piperazin-1-yl)-5-oxo-5,7-dihydro-6H-pyrrolo[3,4-b]pyridin-6-yl)piperidine-2,6-dione]",IC50,MCF7 cells,0.75 nM
same,IC50,MCF7/ERα Y537S cells,3.19 nM

# Reference: patent publication US20250099596A1, “TETRAHYDRONAPHTHALENE COMPOUND, AND PREPARATION METHOD THEREFOR AND USE THEREOF IN MEDICINE” (Jiangsu Hengrui Pharmaceuticals Co., Ltd., priority 2021, published 2025)
